Test results from US11026942B2, “Agent for preventing and/or treating Alzheimer's disease” (KYOTO UNIVERSITY, priority 2015, dated 2021).
Where two headings read alike, the source gives them in different places.

Key:
Format in all cases: cell-based, human
Aβ42 = Aβ42 in FAD1 iPS cell-derived nerve cells (primary/secondary screening, dose dependency); conditions: secondary screening, FAD1 iPS cell-derived nerve cells, numerical value (Aβ change rate)
Excerpt: (§1) To perform induction from iPS cells to the cerebral cortex nerve early and with high reproducibility, iPS cells introduced with human Neurogenin 2 gene (NGN2) linked to doxycycline-inducible promoter by using PiggyBac were used (FIG. 1a, FIG. 1b, FIG. 4a and FIG. 4b). IPS cells prepared from 4 patients with familial Alzheimer's disease (FAD), 2 patients with sporadic Alzheimer's disease (SAD) and 4 healthy individuals (HC) were used. The iPS cells were established by the method described in Okita K et al., Nature.
(§2) Structural formulas (those in the form of salt or halide are also described as free form) and the general names of the candidate compounds are shown in Table 1.
(§3) To further study reproducibility of the candidate drugs obtained by the primary screening, secondary screening was conducted. In addition to Aβ40, Aβ42, Aβ42/40 ratio, Aβ38, Aβ43, sAPPα, sAPPβ were also studied and each numerical value was obtained.

Aβ42/40 ratio = Aβ42/40 ratio in FAD1 iPS cell-derived nerve cells (primary/secondary screening, dose dependency); conditions: secondary screening
Excerpt: as §1, §2, §3

Aβ38 = Aβ38 in FAD1 iPS cell-derived nerve cells (secondary screening); design: scale not given here
Method: as §3

Aβ43 = Aβ43 in FAD1 iPS cell-derived nerve cells (secondary screening); design: scale not given here
Method: as §3

sAPPα = sAPPα in FAD1 iPS cell-derived nerve cells (secondary screening); design: scale not given here
Method: as §3

sAPPβ = sAPPβ in FAD1 iPS cell-derived nerve cells (secondary screening); design: sAPPβ: scale not given here
Method: as §3

[1] = secondary screening, FAD1 iPS cell-derived nerve cells

| SMILES | Aβ42 (Aβ42) | Ratio Aβ42/40 (Aβ42/40 ratio) | Aβ38 (Aβ38) | Aβ43 (Aβ43) | sAPPα (sAPPα; [1]) | sAPPβ (sAPPβ; [1]) | sAPPα (sAPPα) | sAPPβ (sAPPβ) |
| --- | --- | --- | --- | --- | --- | --- | --- | --- |
| CCC[C@H](N[C@@H](C)C(=O)N1[C@H](C(=O)O)C[C@@H]2CCCC[C@@H]21)C(=O)OCC [compound 64, PERINDOPRIL ERBUMINE] | 0.81 | 0.85 | 1.01 | 0.91 | 0.7 | 0.53 |  |  |
| c1ccc2c(c1)OCC(C1=NCCN1)O2 (stereo not drawn) [compound 43, IDAZOXAN] | 0.93 | 0.99 | 1.03 | 0.97 | 0.84 | 0.81 |  |  |
| COc1ccc(CCN(C)CCCC(C#N)(c2ccc(OC)c(OC)c2)C(C)C)cc1OC (stereo not drawn) [compound 75] | 0.74 | 0.91 | 0.89 | 0.75 | 0.81 | 0.71 |  |  |
| c1ccc2[nH]c(-c3cscn3)nc2c1 [compound 20, THIABENDAZOLE] | 0.84 | 0.88 | 1.05 | 0.79 | 0.79 | 0.67 |  |  |
| CCCCC(=O)N(Cc1ccc(-c2ccccc2-c2nn[nH]n2)cc1)[C@H](C(=O)O)C(C)C [compound 48] | 0.97 | 0.9 | 1.14 | 1 | 1.14 | 1.13 |  |  |
| O=S(=O)(O)c1cc(I)c(O)c2ncccc12 [compound 35, CHINIOFON] | 0.83 | 0.86 | 1.05 | 0.79 | 0.71 | 0.6 |  |  |
| OC1CCCCC1N1CCC(c2ccccc2)CC1 (stereo not drawn) [compound 22, VESAMICOL] | 0.9 | 0.97 | 1 | 0.87 | 0.89 | 0.74 |  |  |
| O=c1oc2cc(O)ccc2s1 [compound 92, TIOXOLONE] | 0.55 | 0.83 | 0.76 | 0.67 | 0.76 | 0.63 |  |  |
| COc1cc(NC(C)CCCN)c2ncccc2c1 (stereo not drawn) [compound 77, PRIMAQUINE] | 0.87 | 0.95 | 1.07 | 0.89 | 0.79 | 0.85 |  |  |
| O=C(O)c1cccnc1Nc1cccc(C(F)(F)F)c1 [compound 37, NIFLUMIC ACID] | 0.77 | 0.86 | 0.97 | 0.85 | 0.8 | 0.92 |  |  |
| CC(=O)OC1CCC2(C)C(=CCC3C4CCC(=O)C4(C)CCC32)C1 (stereo not drawn) [compound 109, PRASTERONE ACETATE] | 0.68 | 0.7 | 0.9 | 0.85 | 0.69 | 0.55 |  |  |
| N[C@@H]1CONC1=O [compound 114, CYCLOSERINE] | 0.92 | 0.95 | 1.06 | 0.85 | 0.84 | 0.82 |  |  |
| CC(C)n1c(/C=C/[C@H](O)C[C@@H](O)CC(=O)O)c(-c2ccc(F)cc2)c2ccccc21 [compound 60, FLUVASTATIN] | 0.96 | 0.84 | 1.16 | 1.04 | 0.99 | 1.14 |  |  |
| O=C(NC(Cc1cc(=O)[nH]c2ccccc12)C(=O)O)c1ccc(Cl)cc1 (stereo not drawn) [compound 71, REBAMIPIDE] | 0.79 | 0.85 | 0.97 | 0.78 | 0.8 | 0.66 |  |  |
| COc1cccc([C@@]2(O)CCCC[C@@H]2CN(C)C)c1 [compound 99, TRAMADOL] | 0.98 | 0.93 | 1.17 | 1.02 | 1.04 | 1.11 |  |  |
| NCCc1cnc[nH]1 [compound 121, HISTAMINE] | 1.02 | 1.09 | 1.22 | 1.23 | 1.08 | 1.15 |  |  |
| Nc1c2c(nc3ccccc13)CCCC2 [compound 18, TACRINE] | 1 | 1.02 | 1.18 | 1.21 | 1.04 | 1.23 |  |  |
| CCN(CC)CCOC(=O)C1(C2CCCCC2)CCCCC1 [compound 104, DICYCLOMINE] | 0.93 |  | 1.08 | 0.82 | 0.81 | 0.84 |  |  |
| CCOC(=O)OC(C)OC(=O)[C@@H]1N2C(=O)[C@@H](NC(=O)[C@H](N)c3ccccc3)[C@H]2SC1(C)C (stereo partly drawn) [compound 59, BACAMPICILLIN] | 1.09 | 1.15 | 1.32 | 1.44 | 1.11 | 1.23 |  |  |
| CCN(CC)CCOc1ccc(/C(=C(\Cl)c2ccccc2)c2ccccc2)cc1 [compound 9, CLOMIPHENE] | 0.83 | 0.89 | 1.04 | 0.86 | 0.71 | 0.66 |  |  |
| CC(C)c1cccc(C(C)C)c1O [compound 87, PROPOFOL] | 0.88 | 0.91 | 0.99 | 0.88 |  |  | 0.94 | 1 |
| CC[N+]1(C)CCCC(OC(=O)C(O)(c2ccccc2)c2ccccc2)C1 (stereo not drawn) [compound 42, PIPENZOLATE] | 1.09 | 1.04 | 1.3 | 1.12 | 1.11 | 1.27 |  |  |
| O=C(O)COCCN1CCN([C@H](c2ccccc2)c2ccc(Cl)cc2)CC1 [compound 30, LEVOCETIRIZINE] | 0.76 |  | 0.98 | 0.85 | 0.93 | 0.93 |  |  |
| CN1[C@@H]2CC[C@@H]1CC(OC(=O)C(O)c1ccccc1)C2 (stereo partly drawn) [compound 16, HOMATROPINE] | 1.04 |  | 1.22 | 1.09 | 1.15 | 1.24 |  |  |
| CNCCCN1c2ccccc2CCc2ccccc21 [compound 13, DESIPRAMINE] | 0.94 |  |  | 0.9 | 0.83 | 1.01 |  |  |
| CN(C)CCOC(c1ccccc1)c1ccccc1 [compound 14, diphenhydramine] | 0.98 |  | 1.06 | 0.97 | 0.97 | 1.02 |  |  |
| CN(C)CCCN1c2ccccc2CCc2ccccc21 [compound 17, IMIPRAMINE] |  |  | 1.12 | 1.27 |  | 1.2 |  |  |
